Entries after “also recorded” stand apart in the source; their conditions may differ.
Experiments:
[1] = Photo stability test (impurity by HPLC after 1.2 million lux-hours); assay type: physicochemical; conditions: after preservation under 1.2 million lux-hours of integrated luminance, 25° C.
Description: The amount of impurity was measured through HPLC using a preserved sample, under 1.2 million lux-hours (temperature: 25° C.) of integrated luminance, using a light stability testing device LTL-200D3J-15.
The amount of impurity was measured through HPLC using a preserved sample, under 1.2 million lux-hours (temperature: 25° C.) of integrated luminance, using a light stability testing device LTL-200D3J-15. • HPLC Conditions • Device: LC1100 (LC-5) manufactured by Agilent • Mobile phase: A: 0.01 mol/L, NaClO4 buffer (pH 2.5), B: MeCN • Flow rate: 0.2 mL/min • Column: Inertsil ODS-3 3 um (2.1 mm×100 mm) • Column temperature: 40° C. • Gradient condition: Bconc. 20 to 90% (0 to 18 min), 90% (18 to 23 min), 20% (23.1 to 33 min) • Injection volume: 1 μL • Autosampler temperature: 5° C. • Detection wavelength: 254 nm

[2] = Hygroscopicity test (VTI SGA-100, 25° C., 5 to 95% relative humidity); assay type: physicochemical; conditions: for hygroscopicity (in words): 5 to 95% relative humidity
Description: The measurement was carried out using “DVS” or “SGA-100”, under the conditions of temperature: 25° C., measurement range: 5 to 95% relative humidity, and measurement interval: 5% relative humidity.
For the measurement of hygroscopicity, “VTI SGA-100” was used under the conditions of temperature: 25° C., measurement range: 5 to 95% relative humidity, and measurement interval: 5% relative humidity.

For `CC(C)c1nnc(-c2ccc(-c3ccccc3)nc2)n1-c1cccc2nonc12` [α-form crystal, 4-[3-isopropyl-5-(6-phenyl-3-pyridyl)-4H-1,2,4-triazol-4-yl]-2,1,3-benzoxadiazole], the “Impurity Increase Amount (%)” value [1] was 0.0%, the “Impurity Increase Amount (%)” value ([1]; listed as α-form Crystal) was 0.0% and the “hygroscopicity (in words)” value [2] was “less than that of the known δ-form crystal; also recorded: relatively low hygroscopicity as compared to the known δ-form crystal”.

In the case of `CC(C)c1nnc(-c2ccc(-c3ccccc3)nc2)n1-c1cccc2nonc12` [δ-form crystal, 4-[3-isopropyl-5-(6-phenyl-3-pyridyl)-4H-1,2,4-triazol-4-yl]-2,1,3-benzoxadiazole, reference compound], the “Impurity Increase Amount (%)” value [1] is reported as 1.0%, the “Impurity Increase Amount (%)” value ([1]; listed as δ-form Crystal) is reported as 1.0% and the “relative humidity from which a drastic increase in weight is shown” value [2] is reported as “about 80%”. The “relative humidity from which hygroscopicity gradually starts” value [2] was “about 50%” and the moisture retained ([2]; at a relative humidity of about 95%) was “approximately 2%”.

For `CC(C)c1nnc(-c2ccc(-c3ccccc3)nc2)n1-c1cccc2nonc12` [β-form crystal, 4-[3-isopropyl-5-(6-phenyl-3-pyridyl)-4H-1,2,4-triazol-4-yl]-2,1,3-benzoxadiazole], the “Impurity Increase Amount (%)” value [1] was 0.0%, the “Impurity Increase Amount (%)” value ([1]; listed as β-form Crystal) was 0.0% and the “hygroscopicity (in words)” value [2] was “no hygroscopicity”.

In the case of `CC(C)c1nnc(-c2ccc(-c3ccccc3)nc2)n1-c1cccc2nonc12` [γ-form crystal, 4-[3-isopropyl-5-(6-phenyl-3-pyridyl)-1,2,4-triazol-4-yl]-2,1,3-benzoxadiazole], the “Impurity Increase Amount (%)” value [1] is reported as 0.0%, the “Impurity Increase Amount (%)” value ([1]; listed as γ-form Crystal) is reported as 0.0% and the “hygroscopicity (in words)” value [2] is reported as “no hygroscopicity”.
